The assay relates to Testmikroorganismen. The assay can be described thus: Preservative challenge test (BP 1980 / USP XXI) of antacid preparations. The class given is cell-based. The following applies: for Ergebnisse von Konservierungstests: Hydrotalcitsuspensionen with the preservative added at various concentrations (Tabelle 2); for Vermehrung von Bakterien und Hefen: Hydrotalcitsuspensionen, also at high preservative concentrations. The source says: Der Nachweis der einwandfreien Haltbarmachung von Antacida-Zubereitungen erfolgte mit Hilfe geeigneter Konservierungsbelastungstests wie sie z.B. in der Britischen Pharmakopöe von 198O (British Pharmacopoeia 198O, Addendum 1982, Revised Apendix XVIC: Efficacy of Antimicrobial Preservatives in Pharmaceutical Products) oder der Pharmakopöe der Vereinigten Staaten (The United States Pharmacopeia XXI (1985) Antimicrobial Preservatives Effectiveness,S. 1151-1156) beschrieben werden.
Neben einer Richtlinie der WHO für nichtsterile Produkte, die eine Begrenzung des Keimgehalts in nichtsterilen oralen Arzneimitteln auf 1OOO/ml fordert, gelten unterschiedlich hohe Anforderungen hinsichtlich der Abtötungsrate für bestimmte Testmikroorganismen, je nach Pharmakopöe. Die britische Pharmakopöe verlangt z.B. eine Verminderung der Bakterienkonzentration um 2 Zehnerpotenzen innerhalb von 7 Tagen sowie keine Vermehrung von Hefen und Schimmelpilzen (s. Tab. 1).

With `Cc1ccc(C(C)C)c(O)c1` [Thymol, 5-Methyl-2-(1-methylethyl)phenol], the “Ergebnisse von Konservierungstests” value is “gut konserviert”.
Regarding `O=C(O)c1ccccc1` [Benzoesäure], the “Ergebnisse von Konservierungstests” value is “unwirksam” and the “Vermehrung von Bakterien und Hefen” value was “Vermehrung von Bakterien und Hefen”.
Turning to `C=CCc1ccc(O)c(OC)c1` [Eugenol, 2-Methoxy-4-(2-propenyl)phenol], the “Ergebnisse von Konservierungstests” value was “gut konserviert”.
Consider `N=C(NCCCCCCNC(=N)NC(=N)Nc1ccc(Cl)cc1)NC(=N)Nc1ccc(Cl)cc1` [Chlorhexidin], for which the “Ergebnisse von Konservierungstests” value was “unwirksam”.
Take `O=CC=Cc1ccccc1` [Zimtaldehyd, 3-Phenyl-2-propenal]: the “Ergebnisse von Konservierungstests” value is recorded as “gut konserviert”.
For the molecule `C/C=C/C=C/C(=O)O` [Sorbinsäure], the “Ergebnisse von Konservierungstests” value is recorded as “unwirksam” and the “Vermehrung von Bakterien und Hefen” value is reported as “Vermehrung von Bakterien und Hefen”.

The values above are taken from patent EP0241804A2, “Preserved antacid preparations” (BAYER AG, priority 1986, dated 1987).
